Measurements taken from ChEMBL document CHEMBL2073850, “Human organic anion transporters and human organic cation transporters mediate renal transport of prostaglandins” (J Pharmacol Exp Ther, 2002).

Experiments:
Format in all cases: functional, cell-based
Parameters in all cases: scale not given: the % may be the effect or the level left
[1] = molecular target: T1, OCT1 (Solute carrier family 22 member 1) (Homo sapiens, UniProt O15245); assay: TP_TRANSPORTER: inhibition of TEA uptake (TEA: 5 uM, PGE2: 1000 uM) in OCT1-expressing S2 cells; settings: probe TEA, read-out: Activity
T1 sequence (O15245 whole entry): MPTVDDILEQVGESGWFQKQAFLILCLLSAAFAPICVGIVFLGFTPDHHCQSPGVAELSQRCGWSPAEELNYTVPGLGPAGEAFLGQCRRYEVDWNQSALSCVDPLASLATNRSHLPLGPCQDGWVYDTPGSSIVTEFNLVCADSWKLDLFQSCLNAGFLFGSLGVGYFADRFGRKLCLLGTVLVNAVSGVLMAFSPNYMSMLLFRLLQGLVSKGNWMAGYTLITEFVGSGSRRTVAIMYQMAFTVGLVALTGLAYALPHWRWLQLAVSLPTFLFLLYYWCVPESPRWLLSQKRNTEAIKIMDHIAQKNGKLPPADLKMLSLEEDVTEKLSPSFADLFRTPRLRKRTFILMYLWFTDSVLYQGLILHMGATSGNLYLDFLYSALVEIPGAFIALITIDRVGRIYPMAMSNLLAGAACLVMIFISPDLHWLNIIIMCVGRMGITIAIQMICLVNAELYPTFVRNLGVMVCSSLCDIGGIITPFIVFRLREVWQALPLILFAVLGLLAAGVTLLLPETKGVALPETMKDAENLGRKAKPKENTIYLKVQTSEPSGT

[2] = molecular target: T2, OAT4 (Solute carrier family 22 member 11) (Homo sapiens, UniProt Q9NSA0); assay: TP_TRANSPORTER: inhibition of ES uptake (ES: 0.05 uM, PGE2: 30 uM) in OAT4-expressing S2 cells; settings: probe ES, read-out: Activity
T2 sequence (Q9NSA0 whole entry): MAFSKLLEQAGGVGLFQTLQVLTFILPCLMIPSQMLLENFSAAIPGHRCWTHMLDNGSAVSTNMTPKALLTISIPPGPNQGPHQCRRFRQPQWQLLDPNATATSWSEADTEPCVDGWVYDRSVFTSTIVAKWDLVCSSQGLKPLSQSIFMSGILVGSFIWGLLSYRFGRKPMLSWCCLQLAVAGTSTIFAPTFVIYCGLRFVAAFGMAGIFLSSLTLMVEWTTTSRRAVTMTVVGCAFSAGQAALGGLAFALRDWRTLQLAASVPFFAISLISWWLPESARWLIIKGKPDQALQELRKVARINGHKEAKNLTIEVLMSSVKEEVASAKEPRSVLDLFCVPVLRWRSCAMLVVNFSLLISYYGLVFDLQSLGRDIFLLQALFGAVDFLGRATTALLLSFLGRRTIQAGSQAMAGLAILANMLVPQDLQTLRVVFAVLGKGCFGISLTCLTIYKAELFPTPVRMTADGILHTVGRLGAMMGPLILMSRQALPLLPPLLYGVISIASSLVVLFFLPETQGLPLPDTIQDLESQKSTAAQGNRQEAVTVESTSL

[3] = molecular target: T3, OCT2 (Solute carrier family 22 member 2) (Homo sapiens, UniProt O15244); assay: TP_TRANSPORTER: inhibition of TEA uptake (TEA: 5 uM, PGE2: 1000 uM) in OCT2-expressing S2 cells; settings: mouse, probe TEA, read-out: Activity
T3 sequence (O15244 whole entry): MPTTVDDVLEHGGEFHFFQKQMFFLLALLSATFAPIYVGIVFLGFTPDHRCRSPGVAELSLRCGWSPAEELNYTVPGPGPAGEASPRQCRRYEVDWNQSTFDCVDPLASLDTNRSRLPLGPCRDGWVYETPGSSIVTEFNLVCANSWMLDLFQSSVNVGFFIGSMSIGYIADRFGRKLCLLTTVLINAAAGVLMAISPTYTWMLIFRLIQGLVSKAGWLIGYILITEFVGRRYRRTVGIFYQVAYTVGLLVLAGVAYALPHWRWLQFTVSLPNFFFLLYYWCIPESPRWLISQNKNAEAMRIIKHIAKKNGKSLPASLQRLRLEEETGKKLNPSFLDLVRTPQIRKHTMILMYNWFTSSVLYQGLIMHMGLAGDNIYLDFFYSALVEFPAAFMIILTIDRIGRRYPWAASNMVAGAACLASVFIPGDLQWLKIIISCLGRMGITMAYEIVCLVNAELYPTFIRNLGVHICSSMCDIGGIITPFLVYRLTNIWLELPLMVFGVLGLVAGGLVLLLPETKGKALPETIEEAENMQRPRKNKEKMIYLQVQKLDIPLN

[4] = molecular target: T4, Organic anion transporter 3 (Homo sapiens, UniProt Q8TCC7); assay: TP_TRANSPORTER: inhibition of ES uptake (ES: 0.05 uM, PGE2: 30 uM) in OAT3-expressing S2 cells; settings: s2, 30 µM
T4 sequence (Q8TCC7 whole entry): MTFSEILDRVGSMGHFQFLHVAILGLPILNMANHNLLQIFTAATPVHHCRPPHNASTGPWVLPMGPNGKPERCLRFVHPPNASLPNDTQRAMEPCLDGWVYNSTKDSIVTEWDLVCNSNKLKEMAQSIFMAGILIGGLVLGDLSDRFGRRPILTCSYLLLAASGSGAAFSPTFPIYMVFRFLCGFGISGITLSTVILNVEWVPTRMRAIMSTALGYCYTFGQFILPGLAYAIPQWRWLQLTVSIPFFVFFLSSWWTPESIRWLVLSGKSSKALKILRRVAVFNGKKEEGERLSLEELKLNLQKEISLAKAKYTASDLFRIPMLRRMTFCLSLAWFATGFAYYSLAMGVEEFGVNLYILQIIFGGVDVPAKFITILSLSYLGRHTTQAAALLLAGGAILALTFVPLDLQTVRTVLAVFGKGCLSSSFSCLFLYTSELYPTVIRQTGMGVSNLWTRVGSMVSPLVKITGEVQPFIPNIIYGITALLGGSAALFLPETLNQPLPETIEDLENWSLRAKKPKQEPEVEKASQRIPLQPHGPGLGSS

[5] = molecular target: T5, OAT2 (Solute carrier family 22 member 7) (Homo sapiens, UniProt Q9Y694); assay: TP_TRANSPORTER: inhibition of PGF2alpha uptake (PGF2alpha: 0.05 uM, PGE2: 30 uM) in OAT2-expressing S2 cells; settings: mouse, probe PGF2alpha, read-out: Activity
T5 sequence (Q9Y694 whole entry): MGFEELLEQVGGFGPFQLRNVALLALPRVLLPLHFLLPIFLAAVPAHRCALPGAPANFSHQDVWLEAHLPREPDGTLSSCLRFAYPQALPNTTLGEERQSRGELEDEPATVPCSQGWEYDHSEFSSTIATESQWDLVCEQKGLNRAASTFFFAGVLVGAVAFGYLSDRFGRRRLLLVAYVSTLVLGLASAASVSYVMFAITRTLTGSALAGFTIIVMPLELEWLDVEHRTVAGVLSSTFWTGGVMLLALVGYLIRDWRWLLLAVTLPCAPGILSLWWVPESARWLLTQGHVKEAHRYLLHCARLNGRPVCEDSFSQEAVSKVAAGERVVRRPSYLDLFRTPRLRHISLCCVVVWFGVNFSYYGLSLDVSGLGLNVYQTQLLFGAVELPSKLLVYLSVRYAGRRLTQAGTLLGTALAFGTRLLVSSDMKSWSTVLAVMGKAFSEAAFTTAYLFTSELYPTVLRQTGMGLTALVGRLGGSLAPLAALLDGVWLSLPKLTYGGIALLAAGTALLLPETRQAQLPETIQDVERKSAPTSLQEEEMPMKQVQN

[6] = molecular target: T6, OAT3 (Organic anion transporter 3) (Homo sapiens, UniProt Q8TCC7); assay: TP_TRANSPORTER: inhibition of ES uptake (ES: 0.05 uM, PGF2alpha: 30 uM) in OAT3-expressing S2 cells; settings: probe ES, read-out: Activity
T6 sequence (Q8TCC7 whole entry): T4 sequence (Q8TCC7 whole entry)

[7] = molecular target: T7, Solute carrier family 22 member 1 (Homo sapiens, UniProt O15245); assay: TP_TRANSPORTER: inhibition of TEA uptake (TEA: 5 uM, PGF2alpha: 1000 uM) in OCT1-expressing S2 cells; settings: mouse, s2, 1000 µM
T7 sequence (O15245 whole entry): T1 sequence (O15245 whole entry)

[8] = molecular target: T3, OCT2 (Solute carrier family 22 member 2); assay: TP_TRANSPORTER: inhibition of TEA uptake (TEA: 5 uM, PGF2alpha: 1000 uM) in OCT2-expressing S2 cells; settings: mouse, probe TEA, read-out: Activity
[9] = molecular target: T8, OAT1 (Solute carrier family 22 member 6) (Homo sapiens, UniProt Q4U2R8); assay: TP_TRANSPORTER: inhibition of PAH uptake (PAH: 5 uM, PGF2alpha: 1000 uM) in OAT1-expressing S2 cells; settings: mouse, probe PAH, read-out: Activity
T8 sequence (Q4U2R8 whole entry): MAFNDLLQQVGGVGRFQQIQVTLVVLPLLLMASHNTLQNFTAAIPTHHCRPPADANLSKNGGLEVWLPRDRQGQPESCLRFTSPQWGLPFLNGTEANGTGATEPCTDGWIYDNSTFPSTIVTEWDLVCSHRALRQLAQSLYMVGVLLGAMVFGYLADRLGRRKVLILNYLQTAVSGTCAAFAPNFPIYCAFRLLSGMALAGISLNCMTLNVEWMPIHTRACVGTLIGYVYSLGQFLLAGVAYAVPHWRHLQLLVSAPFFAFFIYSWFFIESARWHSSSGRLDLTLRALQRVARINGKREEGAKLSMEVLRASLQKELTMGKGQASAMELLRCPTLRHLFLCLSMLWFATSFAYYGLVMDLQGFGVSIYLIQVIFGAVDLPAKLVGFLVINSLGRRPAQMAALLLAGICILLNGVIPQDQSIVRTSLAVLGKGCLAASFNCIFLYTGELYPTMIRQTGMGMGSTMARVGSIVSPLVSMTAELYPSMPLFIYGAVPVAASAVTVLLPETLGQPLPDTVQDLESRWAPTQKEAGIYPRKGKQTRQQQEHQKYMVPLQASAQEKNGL

[10] = molecular target: T2, OAT4 (Solute carrier family 22 member 11); assay: TP_TRANSPORTER: inhibition of ES uptake (ES: 0.05 uM, PGF2alpha: 30 uM) in OAT4-expressing S2 cells; settings: mouse, probe ES, read-out: Activity

Row | activity at 1000 µM [1] [%] | activity at 30 µM [2] [%] | activity at 1000 µM [3] [%] | Activity [4] [%] | activity at 30 µM [5] [%] | activity at 30 µM [6] [%] | Activity [7] [%] | activity at 1000 µM [8] [%] | activity at 1000 µM [9] [%] | activity at 30 µM [10] [%] | SMILES
1 | 31.4 | 57 | 75.6 | 21.8 | 21.2 |  |  |  |  |  | CCCCC[C@H](O)/C=C/[C@H]1[C@H](O)CC(=O)[C@@H]1C/C=C\CCCC(=O)O [DINOPROSTONE]
2 |  |  |  |  |  | 26.8 | 68.9 | 70.7 | 17.7 | 40.8 | CCCCC[C@H](O)/C=C/[C@@H]1[C@@H](C/C=C\CCCC(=O)O)[C@@H](O)C[C@H]1O [DINOPROST]
